Here are results for four compounds from patent publication US20100056524A1, “Compound” (priority 2008, published 2010).

Holding throughout (type): biochemical
For one assay, the target named is T1, PKA (Homo sapiens, UniProt P17612).
T1 construct: All protein kinases were of human origin and encoded full length proteins, unless indicated otherwise; made in house
Nature of the assay: PKA protein kinase assay. The conditions noted are these: for remaining activity at 10 µM: 10 μM compound; for residual kinase activity PKA: 1 μm compound; for remaining activity at 1 µM: 1 μM compound. From the text:
(§1) All protein kinases were of human origin and encoded full length proteins, unless indicated otherwise. They were either expressed as glutathione S-transferase (GST) fusion proteins in Escherichia Coli or as hexahistidine (His6)-tagged proteins in insect Sf21 cells. GST fusion proteins were purified by affinity chromatography on glutathione-Sepharose, and His6-tagged proteins on nickel/nitriloacetate-agarose. The procedures for expressing some of the protein kinases used herein have been detailed previously.^8,9 The following sections outline the DNA vectors synthesised and the procedures used to express and purifying protein kinases that have not been reported previously.
(§2) All assays (25.5 μl) were carried out at room temperature (21° C.) and were linear with respect to time and enzyme concentration under the conditions used. Assays were performed for 30 min using Multidrop Micro reagent dispensers (Thermo Electron Corporation, Waltham, Mass. 02454, USA) in a 96-well format. The concentration of magnesium acetate in the assays was 10 mM and the [γ-33P] ATP (800 cpm/pmol) was used at 5, 20 or 50 μM as indicated, in order to be at or below the Km for ATP for each enzyme. Protein kinases assayed at 5 μM ATP were: —ERK1, ERK8, PKBα, MARK3, Aurora C. Protein kinases assayed at 20 μM ATP were: —JNK1, PDK1, CHK1, CHK2, CDK2 and Aurora B. Protein kinases assayed at 50 μM ATP were: —MNK2, IKKepsilon and TBK1.
(§3) The assays were initiated with MgATP, stopped by addition of 5 μl of 0.5 M orthophosphoric acid and spotted on to P81 filterplates using a unifilter harvester (PerkinElmer, Boston, Mass. 02118, USA). The IC50 values of inhibitors were determined after carrying out assays at 10 different concentrations of each compound.
(§4) Unless stated otherwise, enzymes were diluted in 50 mM Tris/HCl pH 7.5, 0.1 mM EGTA, 1 mg/ml BSA, 0.1% (v/v) 2-mercaptoethanol and assayed in 50 mM Tris/HCl pH 7.5, 0.1 mM EGTA, 0.1% (v/v) 2-mercaptoethanol.

Another assay concerns the target T2, PKD1 (Homo sapiens, UniProt Q15139).
T2 construct: All protein kinases were of human origin and encoded full length proteins, unless indicated otherwise; made in house
T2 sequence (Q15139 1-912): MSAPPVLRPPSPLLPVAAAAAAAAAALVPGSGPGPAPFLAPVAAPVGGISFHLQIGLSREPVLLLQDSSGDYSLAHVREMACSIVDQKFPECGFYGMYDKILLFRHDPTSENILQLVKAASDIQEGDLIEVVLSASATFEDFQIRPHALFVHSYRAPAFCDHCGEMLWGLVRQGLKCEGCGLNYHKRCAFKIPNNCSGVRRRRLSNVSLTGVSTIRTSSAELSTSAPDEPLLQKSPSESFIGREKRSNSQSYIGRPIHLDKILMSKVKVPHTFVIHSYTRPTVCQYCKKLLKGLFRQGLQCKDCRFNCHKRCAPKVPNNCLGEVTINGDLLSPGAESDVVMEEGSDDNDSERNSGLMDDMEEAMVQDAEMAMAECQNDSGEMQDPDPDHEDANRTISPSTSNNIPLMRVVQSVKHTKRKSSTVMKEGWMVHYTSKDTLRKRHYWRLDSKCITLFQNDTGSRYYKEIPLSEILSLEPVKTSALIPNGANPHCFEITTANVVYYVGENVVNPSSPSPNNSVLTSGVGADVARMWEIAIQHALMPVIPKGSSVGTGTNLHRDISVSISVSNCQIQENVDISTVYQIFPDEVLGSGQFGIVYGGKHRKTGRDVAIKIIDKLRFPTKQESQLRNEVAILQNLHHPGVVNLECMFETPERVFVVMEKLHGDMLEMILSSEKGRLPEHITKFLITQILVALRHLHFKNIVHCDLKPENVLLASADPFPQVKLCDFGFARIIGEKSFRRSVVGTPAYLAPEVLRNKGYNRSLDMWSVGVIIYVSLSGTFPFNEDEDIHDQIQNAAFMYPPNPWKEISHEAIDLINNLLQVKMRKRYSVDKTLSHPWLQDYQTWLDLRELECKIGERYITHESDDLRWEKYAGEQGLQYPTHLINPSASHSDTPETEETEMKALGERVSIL
In words: PKD1 protein kinase assay. The conditions noted are these: for remaining activity at 10 µM: 10 μM compound; for residual kinase activity PKD1: 1 μm compound; for remaining activity at 1 µM: 1 μM compound.
Text: as §1, §2, §3, §4

The target of the next assay is T3, MNK1 (Homo sapiens, UniProt Q9BUB5).
T3 construct: All protein kinases were of human origin and encoded full length proteins, unless indicated otherwise; made in house
T3 sequence (Q9BUB5 whole entry): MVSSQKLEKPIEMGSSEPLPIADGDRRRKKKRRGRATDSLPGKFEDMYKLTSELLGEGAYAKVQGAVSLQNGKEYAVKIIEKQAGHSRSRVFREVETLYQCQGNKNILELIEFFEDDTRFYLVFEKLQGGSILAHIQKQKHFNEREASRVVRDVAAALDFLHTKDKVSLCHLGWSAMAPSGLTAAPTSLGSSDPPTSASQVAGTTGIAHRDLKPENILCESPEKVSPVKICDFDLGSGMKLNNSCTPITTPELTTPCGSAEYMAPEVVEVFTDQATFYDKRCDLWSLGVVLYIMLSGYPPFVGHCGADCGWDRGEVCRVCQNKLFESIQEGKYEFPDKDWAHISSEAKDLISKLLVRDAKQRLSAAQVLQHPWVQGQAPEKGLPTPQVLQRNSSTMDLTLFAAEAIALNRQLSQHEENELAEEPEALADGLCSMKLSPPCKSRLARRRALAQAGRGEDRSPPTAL
Nature of the assay: MNK1 protein kinase assay. The conditions noted are these: for remaining activity at 10 µM: 10 μM compound; for residual kinase activity MNK1: 1 μm compound; for remaining activity at 1 µM: 1 μM compound.
Text: as §1, §2, §3, §4

The next assay addresses T4, CHK1 (Homo sapiens, UniProt O14757).
T4 construct: All protein kinases were of human origin and encoded full length proteins, unless indicated otherwise; made in house
T4 sequence (O14757 1-476): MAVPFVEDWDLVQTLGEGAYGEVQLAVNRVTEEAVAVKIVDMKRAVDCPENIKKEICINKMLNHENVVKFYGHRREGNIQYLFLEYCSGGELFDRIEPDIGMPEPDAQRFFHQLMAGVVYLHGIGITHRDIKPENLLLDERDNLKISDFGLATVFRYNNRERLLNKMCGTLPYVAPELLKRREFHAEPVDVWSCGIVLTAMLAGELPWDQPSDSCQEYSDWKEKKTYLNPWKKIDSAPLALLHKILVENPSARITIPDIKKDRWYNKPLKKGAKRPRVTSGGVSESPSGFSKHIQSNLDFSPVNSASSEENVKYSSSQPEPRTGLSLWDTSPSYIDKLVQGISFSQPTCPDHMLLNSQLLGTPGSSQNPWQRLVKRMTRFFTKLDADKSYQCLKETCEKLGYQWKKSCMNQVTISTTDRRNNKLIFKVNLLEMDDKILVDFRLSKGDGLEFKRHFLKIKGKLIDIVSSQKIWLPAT
In words: CHK1 protein kinase assay. The conditions noted are these: for remaining activity at 10 µM: 10 μM compound; for residual kinase activity CHK1: 1 μm compound; for remaining activity at 1 µM: 1 μM compound.
Text: as §1, §2, §3, §4

A further assay deals with T5, PIM2 (Homo sapiens, UniProt Q9P1W9).
T5 construct: All protein kinases were of human origin and encoded full length proteins, unless indicated otherwise; made in house
T5 sequence (Q9P1W9 whole entry): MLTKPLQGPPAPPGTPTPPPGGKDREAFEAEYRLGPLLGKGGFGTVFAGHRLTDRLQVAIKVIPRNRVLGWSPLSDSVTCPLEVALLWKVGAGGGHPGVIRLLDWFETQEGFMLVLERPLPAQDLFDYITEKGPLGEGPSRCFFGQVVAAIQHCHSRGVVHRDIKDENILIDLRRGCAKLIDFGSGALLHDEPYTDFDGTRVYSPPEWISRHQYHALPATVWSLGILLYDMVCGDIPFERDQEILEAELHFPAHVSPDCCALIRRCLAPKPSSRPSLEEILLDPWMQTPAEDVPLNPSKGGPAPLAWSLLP
In words: PIM2 protein kinase assay. The conditions noted are these: for remaining activity at 10 µM: 10 μM compound; for residual kinase activity PIM2: 1 μm compound; for remaining activity at 1 µM: 1 μM compound.
Text: as §1, §2, §3, §4

For the next assay, the target named is T6, Src (Homo sapiens, UniProt P12931).
T6 construct: All protein kinases were of human origin and encoded full length proteins, unless indicated otherwise; made in house
T6 sequence (P12931 whole entry): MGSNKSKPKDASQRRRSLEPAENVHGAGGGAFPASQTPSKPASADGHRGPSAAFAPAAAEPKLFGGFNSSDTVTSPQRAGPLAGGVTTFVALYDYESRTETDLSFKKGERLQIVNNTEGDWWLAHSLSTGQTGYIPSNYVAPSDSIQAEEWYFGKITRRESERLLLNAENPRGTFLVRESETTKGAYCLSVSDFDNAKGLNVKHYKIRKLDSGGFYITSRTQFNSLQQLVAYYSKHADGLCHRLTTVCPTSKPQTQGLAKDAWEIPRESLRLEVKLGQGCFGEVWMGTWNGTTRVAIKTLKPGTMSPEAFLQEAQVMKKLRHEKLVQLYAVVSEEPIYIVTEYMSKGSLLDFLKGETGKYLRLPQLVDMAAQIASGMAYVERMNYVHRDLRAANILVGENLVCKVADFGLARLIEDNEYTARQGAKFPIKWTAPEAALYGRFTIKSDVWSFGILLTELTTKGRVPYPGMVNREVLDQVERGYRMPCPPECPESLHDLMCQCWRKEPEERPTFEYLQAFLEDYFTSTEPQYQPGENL
In words: Src protein kinase assay. Particulars: for remaining activity at 10 µM: 10 μM compound; for residual kinase activity Src: 1 μm compound; for remaining activity at 1 µM: 1 μM compound.
Text: as §1, §2, §3, §4

Where [1] appears, read: read-out: residual kinase activity PKA.
Where [2] appears, read: read-out: residual kinase activity PKD1.
Where [3] appears, read: read-out: residual kinase activity MNK1.
The mark [4] stands for this setting: read-out: residual kinase activity CHK1.
The mark [5] stands for this setting: read-out: residual kinase activity PIM2.
Setting [6] is: read-out: residual kinase activity Src.
The mark [7] stands for this setting: PKA, read-out: residual kinase activity.
The mark [8] stands for this setting: PKD1, read-out: residual kinase activity.
[9] abbreviates: MNK1, read-out: residual kinase activity.
[10] abbreviates: CHK1, 20 μM ATP, read-out: residual kinase activity.
Setting [11] is: PIM2, read-out: residual kinase activity.
The mark [12] stands for this setting: Src, read-out: residual kinase activity.

Structures can show the parent of a compound that is named as a salt. Where two headings read alike, the source gives them in different places.

Turning to `O=C(NCCCNc1nc(Nc2cccc(F)c2)ncc1Br)C1CCC1` [Compound A, cyclobutanecarboxylic acid {3-[5-bromo-2-(3-fluoro-phenylamino)-pyrimidin-4-ylamino]-propyl}-amide, reference compound], the remaining activity at 10 µM on PKA (setting [1]) turned out to be 22%; on PKD1 (setting [2]), 1%; on MNK1 (setting [3]), 15%; on CHK1 (setting [4]), 0%; at PIM2 (setting [5]), 75%; at Src (setting [6]), 12%. In addition, the “residual kinase activity PKA” value at PKA worked out at 75%. Moreover, the “residual kinase activity PKD1” value on PKD1 stood at 7%. Moreover, on MNK1, the “residual kinase activity MNK1” value came to 49%. On CHK1, the “residual kinase activity CHK1” value is on record as 9%. At PIM2, the “residual kinase activity PIM2” value is reported as 90%. Also, the “residual kinase activity Src” value on Src is listed as 53%.

Consider `O=C(NCCCNc1nc(Nc2cccc(N3CCCC3=O)c2)ncc1C1CC1)c1cccs1` [Example 47, Thiophene-2-carboxylic acid (3-{5-cyclopropyl-2-[3-(2-oxo-pyrrolidin-1-yl)-phenylamino]-pyrimidin-4-ylamino}-propyl)-amide. Hydrochloride salt], for which the remaining activity at 1 µM at PKA (setting [7]) was found to be 96%; on PKD1 (setting [8]) it was 57%; at MNK1 (setting [9]), 93%; at CHK1 (setting [10]), 70%; on PIM2 (setting [11]) it was 101%; on Src (setting [12]) it was 80%. Besides, the remaining activity at 10 µM at PKA (setting [7]) came to 80%; at PKD1 (setting [8]), 52%; on MNK1 (setting [9]), 73%; on CHK1 (setting [10]) it was 30%; at PIM2 (setting [11]) it was 93%; on Src (setting [12]), 67%.

As to `O=C(NCCCNc1nc(Nc2cccnc2)ncc1C1CC1)c1cccs1` [Example 50, Thiophene-2-carboxylic acid {3-[5-cyclopropyl-2-(pyridin-3-ylamino)-pyrimidin-4-ylamino]-propyl}-amide], the remaining activity at 1 µM was 91% on PKA (setting [7]); 60% on PKD1 (setting [8]); 94% at MNK1 (setting [9]); 65% at CHK1 (setting [10]); 100% on PIM2 (setting [11]); 84% at Src (setting [12]). For the same compound, the remaining activity at 10 µM on PKA (setting [7]) worked out at 80%; at PKD1 (setting [8]), 36%; at MNK1 (setting [9]), 81%; on CHK1 (setting [10]), 21%; at PIM2 (setting [11]) it was 89%; at Src (setting [12]), 50%.

With `O=C(NCCCNc1nc(Nc2cccc(F)c2)ncc1C1CC1)C1CCC1` [Example 23, Cyclobutanecarboxylic acid {3-[5-cyclopropyl-2-(3-fluoro-phenylamino)-pyrimidin-4-ylamino]-propyl}-amide], the remaining activity at 10 µM at PKA (setting [1]) turned out to be 73%; at PKA (setting [7]), 73%; on PKD1 (setting [2]) it was 53%; on PKD1 (setting [8]), 53%; at MNK1 (setting [3]) it was 62%; at MNK1 (setting [9]), 62%. Moreover, the remaining activity at 10 µM stood at 14% on CHK1 (setting [4]); 14% at CHK1 (setting [10]); 67% at PIM2 (setting [5]); 67% at PIM2 (setting [11]); 50% at Src (setting [6]); 50% on Src (setting [12]). Also, on PKA, the “residual kinase activity PKA” value worked out at 80%. The remaining activity at 1 µM amounted to 80% at PKA (setting [7]); 68% at PKD1 (setting [8]); 85% on MNK1 (setting [9]); 51% on CHK1 (setting [10]); 74% on PIM2 (setting [11]); 77% on Src (setting [12]). Also, at PKD1, the “residual kinase activity PKD1” value came to 68%. Moreover, the “residual kinase activity MNK1” value on MNK1 turned out to be 85%. Moreover, the “residual kinase activity CHK1” value on CHK1 was 51%. Moreover, the “residual kinase activity PIM2” value on PIM2 was determined as 74%. In addition, at Src, the “residual kinase activity Src” value is on record as 77%.
